In ChEMBL document CHEMBL3102825, “Exploration of a series of 5-arylidene-2-thioxoimidazolidin-4-ones as inhibitors of the cytolytic protein perforin” (J Med Chem, 2013):
Calls of active or inactive are those of the source. No cut-off for these calls is given here.

Molecular target: Perforin-1 (Mus musculus) (UniProt P10820)
Test: Reversible binding affinity to recombinant mouse perforin by SPR analysis

Sequence of Perforin-1 (Mus musculus) (P10820 whole entry, looked up): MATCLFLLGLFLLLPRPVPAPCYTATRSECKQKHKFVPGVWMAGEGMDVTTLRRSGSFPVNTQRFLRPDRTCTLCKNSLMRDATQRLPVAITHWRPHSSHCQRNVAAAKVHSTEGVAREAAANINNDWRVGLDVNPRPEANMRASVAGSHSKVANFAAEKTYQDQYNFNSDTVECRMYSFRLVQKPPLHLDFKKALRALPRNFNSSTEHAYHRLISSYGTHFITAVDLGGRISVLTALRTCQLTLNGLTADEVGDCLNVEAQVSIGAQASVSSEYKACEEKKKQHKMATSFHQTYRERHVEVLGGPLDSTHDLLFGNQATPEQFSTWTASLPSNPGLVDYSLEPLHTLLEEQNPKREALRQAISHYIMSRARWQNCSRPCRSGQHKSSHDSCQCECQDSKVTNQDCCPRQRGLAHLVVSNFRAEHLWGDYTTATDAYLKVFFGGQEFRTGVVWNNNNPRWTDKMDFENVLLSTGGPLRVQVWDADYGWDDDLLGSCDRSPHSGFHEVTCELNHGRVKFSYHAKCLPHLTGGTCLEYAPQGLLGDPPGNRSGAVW

Row | Structure (SMILES) | Activity
1 | CC1c2cc(-c3ccc(/C=C4/[N-]C(=S)NC4=O)s3)ccc2C(=O)N1C.[Na+] (configuration not stated) | Active
2 | O=C1NC(=S)[N-]/C1=C/c1ccc(-c2ccc3c(c2)CCNC3=O)s1.[Na+] | Active
